Measured values taken from ChEMBL document CHEMBL1141589, “Synthesis and biological evaluation of NO-donor-tacrine hybrids as hepatoprotective anti-Alzheimer drug candidates” (J Med Chem, 2008).

Experiments:
Acetylcholinesterase = Acetylcholinesterase (Homo sapiens, UniProt P22303); assay: Inhibition of AChE by Ellman's assay
Cholinesterase = Cholinesterase (Homo sapiens, UniProt P06276)
Description: Inhibition of BuChE by Ellman's assay

Artery = assay: tissue or blood; conditions: Sus scrofa
Description: Vasorelaxation activity in PGF2-alpha-precontracted pig pulmonary artery

Cholinesterase, sequence (P06276 whole entry): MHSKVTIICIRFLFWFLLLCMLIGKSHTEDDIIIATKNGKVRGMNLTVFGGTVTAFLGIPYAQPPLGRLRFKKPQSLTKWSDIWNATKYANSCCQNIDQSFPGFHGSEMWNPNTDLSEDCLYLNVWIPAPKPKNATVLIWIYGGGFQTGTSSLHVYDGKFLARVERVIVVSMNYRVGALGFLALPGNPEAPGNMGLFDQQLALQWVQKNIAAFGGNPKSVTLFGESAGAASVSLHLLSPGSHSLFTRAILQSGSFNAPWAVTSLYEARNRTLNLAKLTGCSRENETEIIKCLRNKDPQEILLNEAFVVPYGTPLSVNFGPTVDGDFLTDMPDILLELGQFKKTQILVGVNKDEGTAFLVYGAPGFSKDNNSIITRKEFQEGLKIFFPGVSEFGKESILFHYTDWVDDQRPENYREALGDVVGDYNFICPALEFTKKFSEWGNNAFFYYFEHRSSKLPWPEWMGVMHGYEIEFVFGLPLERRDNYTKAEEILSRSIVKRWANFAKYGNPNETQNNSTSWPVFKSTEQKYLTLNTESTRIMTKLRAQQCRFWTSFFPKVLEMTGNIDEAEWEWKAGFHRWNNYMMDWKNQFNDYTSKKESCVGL
Acetylcholinesterase, sequence (P22303 whole entry): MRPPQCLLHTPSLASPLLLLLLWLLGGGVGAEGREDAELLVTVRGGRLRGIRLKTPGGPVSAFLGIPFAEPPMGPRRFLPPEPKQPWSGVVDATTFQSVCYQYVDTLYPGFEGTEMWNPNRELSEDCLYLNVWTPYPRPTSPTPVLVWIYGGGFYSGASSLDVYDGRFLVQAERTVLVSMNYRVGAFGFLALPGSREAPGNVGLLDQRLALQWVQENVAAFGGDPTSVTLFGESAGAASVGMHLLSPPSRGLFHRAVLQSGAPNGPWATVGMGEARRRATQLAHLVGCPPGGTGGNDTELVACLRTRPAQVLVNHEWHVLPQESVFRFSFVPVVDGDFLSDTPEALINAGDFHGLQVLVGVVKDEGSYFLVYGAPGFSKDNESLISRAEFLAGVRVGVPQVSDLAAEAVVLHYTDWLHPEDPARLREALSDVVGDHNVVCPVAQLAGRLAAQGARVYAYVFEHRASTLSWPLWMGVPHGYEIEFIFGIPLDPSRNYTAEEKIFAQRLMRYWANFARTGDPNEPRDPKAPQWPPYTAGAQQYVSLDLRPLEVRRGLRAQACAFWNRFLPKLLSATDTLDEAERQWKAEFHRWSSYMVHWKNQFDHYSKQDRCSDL

Row | SMILES | IC50 (Acetylcholinesterase) [µM] | IC50 (Cholinesterase) [µM] | EC50 (Artery) [µM]
1 | O=[N+]([O-])OCCCCCCNCCCCNc1c2c(nc3ccccc13)CCCC2 | 0.0181 | 0.0108 | 
2 | O=C(CO/N=[N+](\[O-])N1CCCC1)NCCCCNc1c2c(nc3ccccc13)CCCC2 | 0.0507 | 0.041 | 
3 | O=[N+]([O-])OCCCCCCNCCCNc1c2c(nc3ccccc13)CCCC2 | 0.0063 | 0.0217 | 
4 | O=C(CCO[N+](=O)[O-])NCCCNc1c2c(nc3ccccc13)CCCC2 | 0.093 | 0.028 | 
5 | O=C(CO[N+](=O)[O-])NCCCNc1c2c(nc3ccccc13)CCCC2 | 0.0282 | 0.0135 | 3.68
6 | CC(C)(CO[N+](=O)[O-])C(=O)NCCCNc1c2c(nc3ccccc13)CCCC2 | 0.0695 | 0.0055 | 
7 | O=[N+]([O-])OCCCNCCCNc1c2c(nc3ccccc13)CCCC2 | 0.0064 | 0.0055 | 
8 | CC(C)(C)C(=O)NCCCCNc1c2c(nc3ccccc13)CCCC2 | 0.0216 | 0.0365 | 
9 | CC(C)(CO[N+](=O)[O-])C(=O)NCCCCNc1c2c(nc3ccccc13)CCCC2 | 0.226 | 0.0073 | 10.5
10 | O=[N+]([O-])OCCNCCCNc1c2c(nc3ccccc13)CCCC2 | 0.01 | 0.0052 | 
11 | O=C(CCO[N+](=O)[O-])NCCCCNc1c2c(nc3ccccc13)CCCC2 | 0.0457 | 0.0151 | 
12 | O=C(CO/N=[N+](\[O-])N1CCCC1)NCCCNc1c2c(nc3ccccc13)CCCC2 | 0.0355 | 0.0153 | 22.5
13 | O=C(CO[N+](=O)[O-])NCCCCNc1c2c(nc3ccccc13)CCCC2 | 0.0226 | 0.0121 | 
14 | O=[N+]([O-])OCCNCCCCNc1c2c(nc3ccccc13)CCCC2 | 0.0111 | 0.0138 | 
15 | O=[N+]([O-])OCCCNCCCCNc1c2c(nc3ccccc13)CCCC2 | 0.0056 | 0.0099 | 8.8
16 | O=[N+]([O-])O[C@H]1CO[C@H]2[C@@H]1OC[C@H]2O[N+](=O)[O-] [ISOSORBIDE DINITRATE] |  |  | 0.42
